Data from US9212182B2, “Bicyclic sulfonamide compounds as sodium channel inhibitors” (AMGEN INC., priority 2013, dated 2015).

Molecular target: Nav 1.7 (Homo sapiens (Human), UniProt Q15858)
Assay: in-vitro Nav 1.7 PX (IC50)
Type: cell-based
Conditions: not given

Nav 1.7, sequence (Q15858 whole entry): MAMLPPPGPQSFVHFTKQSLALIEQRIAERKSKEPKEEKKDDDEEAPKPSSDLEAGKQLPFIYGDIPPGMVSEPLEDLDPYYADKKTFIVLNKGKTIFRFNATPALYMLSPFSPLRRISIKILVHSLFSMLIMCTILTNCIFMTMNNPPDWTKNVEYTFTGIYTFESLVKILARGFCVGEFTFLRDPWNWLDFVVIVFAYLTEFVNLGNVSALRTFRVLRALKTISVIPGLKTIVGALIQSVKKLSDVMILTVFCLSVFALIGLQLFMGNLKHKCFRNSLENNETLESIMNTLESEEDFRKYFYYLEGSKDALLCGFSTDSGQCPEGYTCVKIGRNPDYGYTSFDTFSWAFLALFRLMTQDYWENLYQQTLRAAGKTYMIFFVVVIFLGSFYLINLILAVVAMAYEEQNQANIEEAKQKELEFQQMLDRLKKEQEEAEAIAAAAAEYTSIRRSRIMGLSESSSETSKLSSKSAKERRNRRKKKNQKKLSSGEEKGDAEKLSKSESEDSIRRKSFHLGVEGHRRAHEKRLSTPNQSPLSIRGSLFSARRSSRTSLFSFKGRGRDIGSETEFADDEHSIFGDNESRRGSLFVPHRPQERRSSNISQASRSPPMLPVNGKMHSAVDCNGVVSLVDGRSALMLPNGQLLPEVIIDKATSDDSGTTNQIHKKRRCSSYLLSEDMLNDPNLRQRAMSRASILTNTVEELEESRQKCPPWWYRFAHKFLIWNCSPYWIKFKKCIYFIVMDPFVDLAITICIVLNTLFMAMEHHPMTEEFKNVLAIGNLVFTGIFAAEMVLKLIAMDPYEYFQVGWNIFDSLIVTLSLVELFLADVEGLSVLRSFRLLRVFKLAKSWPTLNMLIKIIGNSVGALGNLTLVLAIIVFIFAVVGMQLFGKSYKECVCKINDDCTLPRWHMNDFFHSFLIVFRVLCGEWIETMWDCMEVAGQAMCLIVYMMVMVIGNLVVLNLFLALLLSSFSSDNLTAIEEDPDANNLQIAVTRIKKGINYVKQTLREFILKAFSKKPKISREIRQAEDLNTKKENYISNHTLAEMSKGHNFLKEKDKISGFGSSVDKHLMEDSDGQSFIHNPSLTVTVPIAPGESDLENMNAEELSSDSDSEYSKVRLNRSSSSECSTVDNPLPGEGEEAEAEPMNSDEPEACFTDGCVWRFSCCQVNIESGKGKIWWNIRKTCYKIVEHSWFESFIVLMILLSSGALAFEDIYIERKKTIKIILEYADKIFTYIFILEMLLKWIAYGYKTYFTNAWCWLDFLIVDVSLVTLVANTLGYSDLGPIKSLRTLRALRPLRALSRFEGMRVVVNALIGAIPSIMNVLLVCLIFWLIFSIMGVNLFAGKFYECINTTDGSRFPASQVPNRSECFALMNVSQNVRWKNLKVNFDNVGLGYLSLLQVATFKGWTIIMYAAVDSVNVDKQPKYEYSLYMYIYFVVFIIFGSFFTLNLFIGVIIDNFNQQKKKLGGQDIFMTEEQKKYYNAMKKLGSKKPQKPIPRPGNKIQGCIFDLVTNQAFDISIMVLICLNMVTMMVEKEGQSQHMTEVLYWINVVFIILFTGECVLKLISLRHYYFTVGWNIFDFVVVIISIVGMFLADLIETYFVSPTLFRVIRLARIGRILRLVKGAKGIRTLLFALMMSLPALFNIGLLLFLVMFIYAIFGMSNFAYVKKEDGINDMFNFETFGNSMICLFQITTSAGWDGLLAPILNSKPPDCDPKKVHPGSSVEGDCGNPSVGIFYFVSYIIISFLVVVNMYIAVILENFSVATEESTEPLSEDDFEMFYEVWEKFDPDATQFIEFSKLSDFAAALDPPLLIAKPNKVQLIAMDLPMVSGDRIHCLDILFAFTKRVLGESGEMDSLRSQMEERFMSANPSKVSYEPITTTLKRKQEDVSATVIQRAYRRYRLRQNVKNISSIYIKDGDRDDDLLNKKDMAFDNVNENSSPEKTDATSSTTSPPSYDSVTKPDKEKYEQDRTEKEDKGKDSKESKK

Compound	IC50 [nM]
COc1cc(-c2cccc(Cl)c2)cc(F)c1-n1c(=O)ccc2cc(S(=O)(=O)Nc3ccon3)ccc21 (atropisomer, axis not shown; (M)) [Example 319, (M)-1-(3′-chloro-3-fluoro-5-methoxy-4-biphenylyl)-N-3-isoxazolyl-2-oxo-1,2-dihydro-6-quinolinesulfonamide]	207
COc1cc(-c2cccc(F)c2)c(Cl)cc1-n1c(=O)cc(C)c2cc(S(=O)(=O)Nc3ccon3)ccc21 [Example 349, M-1-(2-chloro-3′-fluoro-5-methoxy-[1,1′-biphenyl]-4-yl)-N-(isoxazol-3-yl)-4-methyl-2-oxo-1,2-dihydroquinoline-6-sulfonamide]	10600

More lines, now with the values ahead:

IC50 [nM]	Compound
903	COc1nc(Oc2ccc(F)c(F)c2)c(Cl)cc1-n1c(=O)ccc2cc(S(=O)(=O)Nc3ccon3)ccc21 [Example 1222, 1-(5-chloro-6-(3,4-difluorophenoxy)-2-methoxy-3-pyridinyl)-N-3-isoxazolyl-2-oxo-1,2-dihydro-6-quinolinesulfonamide]
109	COc1cc(-c2cccc(OC(C)C)c2)ccc1-n1c(=O)ccc2cc(S(=O)(=O)Nc3cccnn3)ccc21 (atropisomer, axis not shown; (P)) [Example 1207, (P)-1-(3-methoxy-3′-(1-methylethoxy)-4-biphenylyl)-2-oxo-N-3-pyridazinyl-1,2-dihydro-6-quinolinesulfonamide]

Same assay, conditions: in-vitro Nav 1.7 PX data

Compound	IC50 [nM]
COc1cc(-c2ccc(Cl)cc2)c(F)cc1-n1c(=O)ccc2cc(S(=O)(=O)Nc3ncccn3)ccc21 (atropisomer, axis not shown) [Example 598, 1-(4′-chloro-2-fluoro-5-methoxy-4-biphenylyl)-2-oxo-N-2-pyrimidinyl-1,2-dihydro-6-quinolinesulfonamide]	28
COc1ccc(-c2cccc(F)c2)cc1-n1c(=O)ccc2cc(S(=O)(=O)Nc3ncccn3)ccc21 (atropisomer, axis not shown; (P)) [Example 606, (P)-1-(3′-fluoro-4-methoxy-3-biphenylyl)-2-oxo-N-2-pyrimidinyl-1,2-dihydro-6-quinolinesulfonamide]	159
COc1ccc(Cl)cc1-c1cc(OC)c(-n2c(=O)ccc3cc(S(=O)(=O)Nc4ccon4)ccc32)cc1F [Example 744, 1-(5′-chloro-2-fluoro-2′,5-dimethoxy-4-biphenylyl)-N-3-isoxazolyl-2-oxo-1,2-dihydro-6-quinolinesulfonamide]	7
COc1cc(-c2cccc(C)c2F)c(F)cc1-n1c(=O)ccc2cc(S(=O)(=O)Nc3ccon3)ccc21 [Example 719, 1-(2,2′-difluoro-5-methoxy-3′-methyl-4-biphenylyl)-N-3-isoxazolyl-2-oxo-1,2-dihydro-6-quinolinesulfonamide]	49
COc1cc(-c2cccc(Cl)c2OC)c(F)cc1-n1c(=O)ccc2cc(S(=O)(=O)Nc3ccon3)ccc21 [Example 747, 1-(3′-chloro-2-fluoro-2′,5-dimethoxy-4-biphenylyl)-N-3-isoxazolyl-2-oxo-1,2-dihydro-6-quinolinesulfonamide]	16
COc1cc(-c2ccc(Cl)c(C)c2)c(F)cc1-n1c(=O)ccc2cc(S(=O)(=O)Nc3ccc(F)cn3)ccc21 (atropisomer, axis not shown; (P)) [Example 693, (P)-1-(4′-chloro-2-fluoro-5-methoxy-3′-methyl-4-biphenylyl)-N-(5-fluoro-2-pyridinyl)-2-oxo-1,2-dihydro-6-quinolinesulfonamide]	186

Next, values leading:

IC50 [nM]	Compound
161	COc1nc(OCC(F)(F)C(F)(F)F)c(Cl)cc1-n1c(=O)ccc2cc(S(=O)(=O)Nc3ccon3)ccc21 [Example 832, 1-(5-chloro-2-methoxy-6-(2,2,3,3,3-pentafluoropropoxy)-3-pyridinyl)-N-3-isoxazolyl-2-oxo-1,2-dihydro-6-quinolinesulfonamide]
1730	COc1cc(C[C@@H]2C[C@@H]3CC[C@H]2O3)c(F)cc1-n1c(=O)ccc2cc(S(=O)(=O)Nc3ccon3)ccc21 [Example 1087, 1-(5-fluoro-2-methoxy-4-((1R,2R,4S)-7-oxabicyclo[2.2.1]hept-2-ylmethyl)phenyl)-N-3-isoxazolyl-2-oxo-1,2-dihydro-6-quinolinesulfonamide, 1-(5-fluoro-2-methoxy-4-((1S,2S,4R)-7-oxabicyclo[2.2.1]hept-2-ylmethyl)phenyl)-N-3-isoxazolyl-2-oxo-1,2-dihydro-6-quinolinesulfonamide]
49	COc1cc(-c2ccc(C(F)(F)F)cc2)c(F)cc1-n1c(=O)ccc2cc(S(=O)(=O)Nc3cc(C)ncn3)ccc21 [Example 798, 1-(2-fluoro-5-methoxy-4′-(trifluoromethyl)-4-biphenylyl)-N-(6-methyl-4-pyrimidinyl)-2-oxo-1,2-dihydro-6-quinolinesulfonamide]
285	COc1cc(-c2ccc(F)c(F)c2)ccc1-n1c(=O)ccc2cc(S(=O)(=O)Nc3ccnc(C)n3)ccc21 [Example 900, 1-(3′,4′-difluoro-3-methoxy-4-biphenylyl)-N-(2-methyl-4-pyrimidinyl)-2-oxo-1,2-dihydro-6-quinolinesulfonamide]
24	COc1cc(-c2cccc(C)c2)c(F)cc1-n1c(=O)ccc2cc(S(=O)(=O)Nc3ncco3)ccc21 [Example 1106, 1-(2-fluoro-5-methoxy-3′-methyl-4-biphenylyl)-N-1,3-oxazol-2-yl-2-oxo-1,2-dihydro-6-quinolinesulfonamide]
268	COc1cc(F)cc(-c2ccc(-n3c(=O)ccc4cc(S(=O)(=O)Nc5ncco5)ccc43)c(OC)c2)c1 [Example 1005, 1-(3′-fluoro-3,5′-dimethoxy-4-biphenylyl)-N-1,3-oxazol-2-yl-2-oxo-1,2-dihydro-6-quinolinesulfonamide]
675	COc1ccc(-c2cc(F)cc(Cl)c2)cc1-n1c(=O)ccc2cc(S(=O)(=O)Nc3ccon3)ccc21 [Example 859, 1-(3′-chloro-5′-fluoro-4-methoxy-3-biphenylyl)-N-3-isoxazolyl-2-oxo-1,2-dihydro-6-quinolinesulfonamide]
84	COc1cc(-c2ccc(Cl)c(C#N)c2)c(F)cc1-n1c(=O)ccc2cc(S(=O)(=O)Nc3ncco3)ccc21 [Example 890, 1-(4′-chloro-3′-cyano-2-fluoro-5-methoxy-4-biphenylyl)-N-1,3-oxazol-2-yl-2-oxo-1,2-dihydro-6-quinolinesulfonamide]
20	COc1ccc(-c2cccc(Cl)c2C)cc1-n1c(=O)ccc2cc(S(=O)(=O)Nc3ccon3)ccc21 [Example 891, 1-(3′-chloro-4-methoxy-2′-methyl-3-biphenylyl)-N-3-isoxazolyl-2-oxo-1,2-dihydro-6-quinolinesulfonamide]

Same assay, conditions: in-vitro Nav 1.7 PX data, Table 4

Compound	IC50 [nM]
COc1cc(-c2cnc(OC)c(Cl)c2)c(F)cc1-n1c(=O)ccc2cc(S(=O)(=O)Nc3ccc(F)cn3)ccc21 (atropisomer, axis not shown; (P)) [Example 1161, (P)-1-(4-(5-chloro-6-methoxy-3-pyridinyl)-5-fluoro-2-methoxyphenyl)-N-(5-fluoro-2-pyridinyl)-2-oxo-1,2-dihydro-6-quinolinesulfonamide]	20

Same assay, conditions: in-vitro PatchXpress (PX)

Compound	IC50 [nM]
COc1nc(-c2ccc(Cl)c(C)c2)c(Cl)cc1-n1c(=O)ccc2cc(S(=O)(=O)Nc3ccon3)ccc21 [Example 448, 1-(5-chloro-6-(4-chloro-3-methylphenyl)-2-methoxypyridin-3-yl)-N-(isoxazol-3-yl)-2-oxo-1,2-dihydroquinoline-6-sulfonamide]	115
